The text below walks through data of the NIST ThermoML archive (doi:10.1016/j.fluid.2007.10.004).

The conditions of the series: Capillary rise.

± gives the expanded uncertainty stated by the source.

As for `CCCCn1cc[n+](C)c1.[Cl-]` [1-butyl-3-methylimidazolium chloride], the surface tension liquid-gas (298 K) was found to be 48.2 ± 1.4 mN/m; the surface tension liquid-gas (303 K) came out at 47.8 ± 1.3 mN/m; the surface tension liquid-gas (308 K) worked out at 47.5 ± 1.3 mN/m; the surface tension liquid-gas (313 K) stood at 47.2 ± 1.3 mN/m; the surface tension liquid-gas (318 K) is on record as 46.9 ± 1.3 mN/m; the surface tension liquid-gas (323 K) is recorded as 46.6 ± 1.3 mN/m. The surface tension liquid-gas was determined as 46.3 ± 1.3 mN/m (328 K); 46 ± 1.3 mN/m (333 K); 45.6 ± 1.3 mN/m (338 K); 45.3 ± 1.3 mN/m (343 K); 45 ± 1.3 mN/m (348 K); 44.7 ± 1.3 mN/m (353 K). Also, the surface tension liquid-gas is, setting by setting: (358 K) 44.4 ± 1.3 mN/m; (363 K) 43.9 ± 1.3 mN/m; (368 K) 43.6 ± 1.3 mN/m; (373 K) 43.2 ± 1.2 mN/m; (378 K) 42.9 ± 1.2 mN/m; (383 K) 42.5 ± 1.2 mN/m. Also, the surface tension liquid-gas reads like this: (388 K) 42.2 ± 1.2 mN/m; (393 K) 41.8 ± 1.2 mN/m.

For the compound `CCCCCCCC[n+]1ccn(C)c1.F[B-](F)(F)F` [1-methyl-3-octylimidazolium tetrafluoroborate], the surface tension liquid-gas amounted to 30.7 ± 1 mN/m (298 K); 30.4 ± 1 mN/m (303 K); 30.1 ± 1 mN/m (308 K); 29.9 ± 1 mN/m (313 K); 29.6 ± 1 mN/m (318 K); 29.4 ± 1 mN/m (323 K). The surface tension liquid-gas (328 K) turned out to be 29.2 ± 1 mN/m; the surface tension liquid-gas (333 K) came to 28.9 ± 0.9 mN/m; the surface tension liquid-gas (338 K) amounted to 28.7 ± 0.9 mN/m; the surface tension liquid-gas (343 K) was determined as 28.4 ± 0.9 mN/m; the surface tension liquid-gas (348 K) came out at 28.2 ± 0.9 mN/m; the surface tension liquid-gas (353 K) turned out to be 27.9 ± 0.9 mN/m. Further, the surface tension liquid-gas (358 K) was found to be 27.7 ± 0.9 mN/m; the surface tension liquid-gas (363 K) came to 27.4 ± 0.9 mN/m; the surface tension liquid-gas (368 K) worked out at 27.2 ± 0.9 mN/m; the surface tension liquid-gas (373 K) is listed as 27 ± 0.9 mN/m; the surface tension liquid-gas (378 K) turned out to be 26.7 ± 0.9 mN/m; the surface tension liquid-gas (383 K) is reported as 26.5 ± 0.9 mN/m. For the same compound, the surface tension liquid-gas was 26.3 ± 0.9 mN/m (388 K) and 26 ± 0.9 mN/m (393 K).

The surface tension liquid-gas is the work needed to enlarge the surface of a liquid by unit area.
